In US11746100B2 (GLOBAL BLOOD THERAPEUTICS, INC., priority 2020, dated 2023) one finds pEC50 data, which are given here for 28 compounds.

The assay concerns the target T1, human ferroportin (Homo sapiens, UniProt Q9NP59).
T1 construct: luciferase reporter (read with the Nano-Glo Luciferase Assay System); expressed in transfected cells; host or cells: CHO cells, stably transfected, expression induced with doxycycline
T1 sequence (Q9NP59 1-571): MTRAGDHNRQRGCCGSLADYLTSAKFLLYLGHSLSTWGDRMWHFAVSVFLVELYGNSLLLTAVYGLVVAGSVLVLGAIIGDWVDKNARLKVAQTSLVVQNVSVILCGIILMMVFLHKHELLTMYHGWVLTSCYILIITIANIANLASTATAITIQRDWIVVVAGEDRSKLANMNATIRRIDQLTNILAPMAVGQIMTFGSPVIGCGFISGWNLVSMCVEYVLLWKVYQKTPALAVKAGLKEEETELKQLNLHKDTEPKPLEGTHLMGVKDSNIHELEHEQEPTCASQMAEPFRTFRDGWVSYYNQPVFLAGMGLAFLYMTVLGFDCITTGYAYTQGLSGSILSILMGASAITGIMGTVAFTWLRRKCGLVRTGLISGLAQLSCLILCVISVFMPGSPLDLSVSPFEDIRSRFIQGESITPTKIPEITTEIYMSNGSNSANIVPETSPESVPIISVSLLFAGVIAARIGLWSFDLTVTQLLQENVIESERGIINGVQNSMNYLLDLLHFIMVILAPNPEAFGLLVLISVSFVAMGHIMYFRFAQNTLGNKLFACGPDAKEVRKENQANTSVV
Put plainly: Biological in-vitro ferroportin internalization assay (luciferase reporter). The assay is classed as cell-based. The settings on record: average pEC50; stably-transfected CHO cell line expressing human ferroportin tagged to a luciferase reporter; 6 h incubation with test compound. In a few lines:
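Read-out is Nano-Glo luciferase signal after 6 h compound exposure, with average pEC50 derived. Cells are a stable CHO line carrying luciferase-tagged human ferroportin, pre-loaded 24 h with ferric ammonium citrate and doxycycline-induced for 24 h.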
(Reporter assays use an easily measured gene product as a stand-in for the process of interest.)
Compound `COc1ncc(NC(=O)CN(C)c2nc(-c3cc(OCCO)ccn3)nc3c2CCC3)cn1` [Compound 197, 2-({2-[4-(2-hydroxyethoxy)pyridin-2-yl]-5H,6H,7H-cyclopenta[d]pyrimidin-4-yl}(methyl)amino)-N-(2-methoxypyrimidin-5-yl)acetamide] returned a pEC50 of 7.4.

Regarding `Cc1ccnc(-c2nc3c(c(N4CC(C(=O)NC5CCCCC5)C4)n2)CCC3)c1` [Compound 30, N-cyclohexyl-1-[2-(4-methylpyridin-2-yl)-5H,6H,7H-cyclopenta[d]pyrimidin-4-yl]azetidine-3-carboxamide], the negative-log EC50 (pEC50) was 5.7.

Compound `CN(C)CCSc1ccnc(-c2nc3c(c(N(C)CC(=O)NC(C)(C)C)n2)CCC3)c1` [Compound 499, N-tert-butyl-2-{[2-(4-{[2-(dimethylamino)ethyl]sulfanyl}pyridin-2-yl)-5H,6H,7H-cyclopenta[d]pyrimidin-4-yl](methyl)amino}acetamide] displayed a pEC50 of 8.2.

The compound `COc1ccc(NC(=O)CN(C)c2nc(-c3cc(OCC4CC4)ccn3)nc3c2CCC3)cn1` [Compound 224, 2-({2-[4-(cyclopropylmethoxy)pyridin-2-yl]-5H,6H,7H-cyclopenta[d]pyrimidin-4-yl}(methyl)amino)-N-(6-methoxypyridin-3-yl)acetamide] returned a pEC50 of 7.9.

In the case of `CC(C)NC(=O)[C@H](C)N(C)c1nc(-c2cc(OCCN(C)C)ccn2)nc2c1CCC2` [Compound 434, (2S)-2-[(2-{4-[2-(dimethylamino)ethoxy]pyridin-2-yl}-5H,6H,7H-cyclopenta[d]pyrimidin-4-yl)(methyl)amino]-N-(propan-2-yl)propanamide], the negative-log EC50 (pEC50) is listed as 7.4.

In turn, `COc1ccc2cc(-c3nc4c(c(N(C)CC(=O)NC(C)(C)C)n3)CCC4)ncc2c1` [Compound 262, N-tert-butyl-2-{[2-(7-methoxyisoquinolin-3-yl)-5H,6H,7H-cyclopenta[d]pyrimidin-4-yl](methyl)amino}acetamide] registered a pEC50 of 7.1.

For `CN(CC(=O)NC(C)(C)C)c1nc(-c2ccn(C)n2)nc2c1CCC2` [Compound 160, N-tert-butyl-2-{methyl[2-(1-methyl-1H-pyrazol-3-yl)-5H,6H,7H-cyclopenta[d]pyrimidin-4-yl]amino}acetamide], the pEC50 is reported as 5.2.

`CN(CC(=O)NC12CC(C1)C2)c1nc(-c2cc(OCC(C)(C)O)ccn2)nc2c1CCC2` [Compound 383, N-{bicyclo[1.1.1]pentan-1-yl}-2-({2-[4-(2-hydroxy-2-methylpropoxy)pyridin-2-yl]-5H,6H,7H-cyclopenta[d]pyrimidin-4-yl}(methyl)amino)acetamide] returned a pEC50 of 7.8.

`CN(CC(=O)NC(C)(C)CCO)c1nc(-c2ccccn2)nc2c1CCC2` [Compound 63, N-(4-hydroxy-2-methylbutan-2-yl)-2-{methyl[2-(pyridin-2-yl)-5H,6H,7H-cyclopenta[d]pyrimidin-4-yl]amino}acetamide] returned a pEC50 of 7.2.

`COc1ccc(N2CCCN(c3nc(-c4ccccn4)nc4c3CCC4)CC2=O)cc1` [Compound 188, 1-(4-methoxyphenyl)-4-[2-(pyridin-2-yl)-5H,6H,7H-cyclopenta[d]pyrimidin-4-yl]-1,4-diazepan-2-one]: the pEC50 was 6.7.

As for `CCn1cnc(-c2nc3c(c(N(C)CC(=O)NC(C)(C)C)n2)CCC3)c1` [Compound 193, N-tert-butyl-2-{[2-(1-ethyl-1H-imidazol-4-yl)-5H,6H,7H-cyclopenta[d]pyrimidin-4-yl](methyl)amino}acetamide], the negative-log EC50 (pEC50) was determined as 6.8.

`CC(C(=O)NC1CCCCC1)N(C)c1nc(-c2ccccn2)nc2c1CCC2` (stereo not shown) [Compound 91, N-cyclohexyl-2-{methyl[2-(pyridin-2-yl)-5H,6H,7H-cyclopenta[d]pyrimidin-4-yl]amino}propanamide] yielded a pEC50 of 7.3.

For the compound `COc1ccnc(-c2nc3c(c(N(C)Cc4nc(Cc5ccccc5)co4)n2)CCC3)c1` [Compound 379, N-[(4-benzyl-1,3-oxazol-2-yl)methyl]-2-(4-methoxypyridin-2-yl)-N-methyl-5H,6H,7H-cyclopenta[d]pyrimidin-4-aminemide], the pEC50 is on record as 7.2.

Compound `COc1ccnc(-c2nc3c(c(N(C)CC(=O)N[C@H](C)CO)n2)CCC3)c1` [Compound 458, N-[(2R)-1-hydroxypropan-2-yl]-2-{[2-(4-methoxypyridin-2-yl)-5H,6H,7H-cyclopenta[d]pyrimidin-4-yl](methyl)amino}acetamidede] came in with a pEC50 of 7.3.

On to `CN(CC(=O)Nc1cnn(C)c1)c1nc(-c2cc(OCCO)ccn2)nc2c1CCC2` [Compound 296, 2-({2-[4-(2-hydroxyethoxy)pyridin-2-yl]-5H,6H,7H-cyclopenta[d]pyrimidin-4-yl}(methyl)amino)-N-(1-methyl-1H-pyrazol-4-yl)acetamide], for which the pEC50 is 7.6.

Consider `Cc1ccnc(-c2nc3c(c(N(C)CC(=O)NC(C)(C)C)n2)CCCC3)c1` [Compound 42, N-tert-butyl-2-{methyl[2-(4-methylpyridin-2-yl)-5,6,7,8-tetrahydroquinazolin-4-yl]amino}acetamide], for which the pEC50 was 7.3.

For `CN(CC(=O)Nc1ccc(OC(F)(F)F)nc1)c1nc(-c2cc3ccccc3cn2)nc2c1CCC2` [Compound 234, 2-{[2-(isoquinolin-3-yl)-5H,6H,7H-cyclopenta[d]pyrimidin-4-yl](methyl)amino}-N-[6-(trifluoromethoxy)pyridin-3-yl]acetamide], the pEC50 was found to be 6.4.

In turn, `CC(C(=O)NC(C)(C)C)N(C)c1nc(-c2ccccn2)nc2c1CCC2` (stereo not shown) [Compound 90, N-tert-butyl-2-{methyl[2-(pyridin-2-yl)-5H,6H,7H-cyclopenta[d]pyrimidin-4-yl]amino}propanamide] had a pEC50 of 7.4.

Compound `CCC(O)(CC)COc1ccnc(-c2nc3c(c(N(C)CC(=O)NC)n2)CCC3)c1` [Compound 443, 2-({2-[4-(2-ethyl-2-hydroxybutoxy)pyridin-2-yl]-5H,6H,7H-cyclopenta[d]pyrimidin-4-yl}(methyl)amino)-N-methylacetamide] had a pEC50 of 7.8.

In turn, `CN(CC(=O)N1CCCC1)c1nc(-c2cc(OCCO)ccn2)nc2c1CCC2` [Compound 354, 2-({2-[4-(2-hydroxyethoxy)pyridin-2-yl]-5H,6H,7H-cyclopenta[d]pyrimidin-4-yl}(methyl)amino)-1-(pyrrolidin-1-yl)ethan-1-one] yielded a pEC50 of 7.7.

For the compound `CN(C)CCOc1ccnc(-c2nc3c(c(N(C)CC(=O)NC(C)(C)C)n2)CCC3O)c1` (stereo not shown) [Compound 494, N-tert-butyl-2-[(2-{4-[2-(dimethylamino)ethoxy]pyridin-2-yl}-7-hydroxy-5H,6H,7H-cyclopenta[d]pyrimidin-4-yl)(methyl)amino]acetamide], the pEC50 is 6.3.

In the case of `COc1ccc(NC(=O)CN(C)c2nc(-c3cc4cccnc4cn3)nc3c2CCC3)cn1` [Compound 244, N-(6-methoxypyridin-3-yl)-2-{methyl[2-(1,7-naphthyridin-6-yl)-5H,6H,7H-cyclopenta[d]pyrimidin-4-yl]amino}acetamide], the pEC50 is 6.4.

`CN(CC(=O)Nc1ccc(Cl)cc1)c1nc(-c2cc(OC3COC3)ccn2)nc2c1CCC2` [Compound 325, N-(4-chlorophenyl)-2-[methyl({2-[4-(oxetan-3-yloxy)pyridin-2-yl]-5H,6H,7H-cyclopenta[d]pyrimidin-4-yl})amino]acetamide] had a pEC50 of 7.9.

In turn, `CN(CC(=O)Nc1ccc(F)nc1)c1nc(-c2cn(C)cn2)nc2c1CCC2` [Compound 129, N-(6-fluoropyridin-3-yl)-2-{methyl[2-(1-methyl-1H-imidazol-4-yl)-5H,6H,7H-cyclopenta[d]pyrimidin-4-yl]amino}acetamide] yielded a pEC50 of 7.2.

Regarding `C[C@@H]1C[C@@H](Oc2ccnc(-c3nc4c(c(N(C)CC(=O)NC(C)(C)C)n3)CCC4)c2)CN1C` [Compound 488, N-tert-butyl-2-{[2-(4-{[(3R,5R)-1,5-dimethylpyrrolidin-3-yl]oxy}pyridin-2-yl)-5H,6H,7H-cyclopenta[d]pyrimidin-4-yl](methyl)amino}acetamide], the pEC50 is listed as 7.8.

Compound `Cc1ccnc(-c2nc3c(c(N(C)CC(=O)NC4(C)CCCC4)n2)CCC3)c1` [Compound 105, 2-{methyl[2-(4-methylpyridin-2-yl)-5H,6H,7H-cyclopenta[d]pyrimidin-4-yl]amino}-N-(1-methylcyclopentyl)acetamide] registered a pEC50 of 7.7.

For `CN(CC(=O)NC(C)(C)C)c1nc(-c2cc(O[C@H]3CCOC3)ccn2)nc2c1CCC2` [Compound 317, N-tert-butyl-2-[methyl(2-{4-[(3S)-oxolan-3-yloxy]pyridin-2-yl}-5H,6H,7H-cyclopenta[d]pyrimidin-4-yl)amino]acetamide], the pEC50 was 7.9.

`CN(CC(=O)NC(C)(C)C)c1nc(-c2cc(C#N)ccn2)nc2c1CCC2` [Compound 158, N-tert-butyl-2-{[2-(4-cyanopyridin-2-yl)-5H,6H,7H-cyclopenta[d]pyrimidin-4-yl](methyl)amino}acetamide] returned a pEC50 of 6.2.

As usually defined, the pEC50 is the negative decadic logarithm of the EC50, by convention in mol/L.
